From patent US9102701B2, “17-hydroxy-17-pentafluoroethyl-estra-4,9(10)-diene-11-ethynylphenyl derivatives, methods for the production thereof and use thereof for treating diseases” (Bayer Intellectual Property GmbH, priority 2009, dated 2015)
Values after ≈ are worked out from the molar mass of the structure shown.

Legend:
[1] = Solubility in aqueous medium at pH 7.4; assay type: physicochemical; conditions: for solubility: aqueous medium, pH 7.4, aqueous buffer
[2] = biological target: T1, human progesterone receptor A (Homo sapiens, UniProt P06401); assay: Progesterone receptor-antagonistic action in stably transfected SK-N-MC cells, PR-A, MMTV-LUC reporter; assay type: cell-based; conditions: read-out: IC50 PR-A
T1 construct: expressed in transfected cells; host or cells: SK-N-MC human neuroblastoma cells, stably transfected with pRChPR-A-neo and pMMTV-LUC
T1 sequence (P06401 1-769 isoform P06401-2): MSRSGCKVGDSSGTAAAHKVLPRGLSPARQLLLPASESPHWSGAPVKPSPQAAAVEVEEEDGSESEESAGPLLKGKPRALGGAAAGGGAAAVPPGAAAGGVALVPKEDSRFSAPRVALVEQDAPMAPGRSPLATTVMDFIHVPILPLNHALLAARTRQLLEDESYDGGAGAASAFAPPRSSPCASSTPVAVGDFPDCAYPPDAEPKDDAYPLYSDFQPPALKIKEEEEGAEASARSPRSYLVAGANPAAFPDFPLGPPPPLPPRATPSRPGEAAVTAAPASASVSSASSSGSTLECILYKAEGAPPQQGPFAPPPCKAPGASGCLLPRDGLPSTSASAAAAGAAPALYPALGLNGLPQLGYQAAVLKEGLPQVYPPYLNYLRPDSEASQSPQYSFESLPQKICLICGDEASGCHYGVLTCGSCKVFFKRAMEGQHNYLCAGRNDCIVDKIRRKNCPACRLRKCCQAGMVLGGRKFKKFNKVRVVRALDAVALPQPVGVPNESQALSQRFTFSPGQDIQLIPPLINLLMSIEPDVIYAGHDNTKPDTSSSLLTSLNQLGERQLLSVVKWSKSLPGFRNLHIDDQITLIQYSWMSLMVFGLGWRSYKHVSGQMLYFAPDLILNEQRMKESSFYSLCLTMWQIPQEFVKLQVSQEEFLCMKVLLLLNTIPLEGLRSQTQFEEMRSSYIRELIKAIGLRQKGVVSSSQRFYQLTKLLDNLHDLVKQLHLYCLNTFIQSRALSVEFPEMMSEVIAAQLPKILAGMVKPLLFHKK
How it was run: (§1)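 SK-N-MC neuroblastoma cells stably expressing human PR-A or PR-B plus MMTV-LUC reporter, treated 24 h with compound (0.01 nmol/l upward). Antagonism measured against 0.1 nmol/l promegestone; luciferase in lysates as RLU, given as % efficacy and IC50 (agonism as EC50).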

[3] = biological target: T2, human progesterone receptor B (Homo sapiens, UniProt P06401); assay: Progesterone receptor-antagonistic action in stably transfected SK-N-MC cells, PR-B, MMTV-LUC reporter; assay type: cell-based; conditions: read-out: IC50 PR-B
T2 construct: expressed in transfected cells; host or cells: SK-N-MC human neuroblastoma cells, stably transfected with pRChPR-B-neo and pMMTV-LUC
T2 sequence (P06401 1-933): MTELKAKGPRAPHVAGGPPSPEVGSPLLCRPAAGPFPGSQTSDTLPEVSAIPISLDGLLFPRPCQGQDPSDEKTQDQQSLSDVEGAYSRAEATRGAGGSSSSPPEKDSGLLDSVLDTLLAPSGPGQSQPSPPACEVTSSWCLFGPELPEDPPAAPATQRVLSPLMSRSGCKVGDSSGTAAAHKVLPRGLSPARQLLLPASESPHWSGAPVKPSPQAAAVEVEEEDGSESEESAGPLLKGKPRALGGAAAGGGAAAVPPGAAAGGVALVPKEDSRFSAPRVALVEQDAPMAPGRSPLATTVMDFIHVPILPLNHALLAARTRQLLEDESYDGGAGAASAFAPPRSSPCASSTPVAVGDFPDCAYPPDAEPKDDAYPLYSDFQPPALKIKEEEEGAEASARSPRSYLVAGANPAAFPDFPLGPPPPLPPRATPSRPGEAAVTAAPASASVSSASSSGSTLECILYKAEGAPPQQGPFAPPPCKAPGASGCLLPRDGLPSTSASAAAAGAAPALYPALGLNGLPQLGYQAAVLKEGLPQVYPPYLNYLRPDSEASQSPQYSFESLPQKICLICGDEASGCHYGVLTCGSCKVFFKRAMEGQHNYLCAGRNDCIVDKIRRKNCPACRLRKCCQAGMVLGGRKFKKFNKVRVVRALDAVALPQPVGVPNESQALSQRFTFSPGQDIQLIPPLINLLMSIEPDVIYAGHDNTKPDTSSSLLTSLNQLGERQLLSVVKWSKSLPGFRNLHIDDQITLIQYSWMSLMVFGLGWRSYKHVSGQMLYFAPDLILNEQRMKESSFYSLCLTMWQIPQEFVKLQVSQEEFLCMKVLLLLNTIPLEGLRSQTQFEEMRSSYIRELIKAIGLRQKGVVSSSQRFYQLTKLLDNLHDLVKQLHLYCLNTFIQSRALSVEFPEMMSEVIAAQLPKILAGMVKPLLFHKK
How it was run: as §1

[4] = Metabolic stability in human liver microsomes; assay type: in vitro ADME; conditions: for Predicted clearance Human: predicted in vivo clearance from liver microsomes, well-stirred model, 1 μM; for Predicted Fmax (maximum oral bioavailability) Human: calculated from liver microsome data
Method: Determination of Metabolic Stability in Human and Rat Liver Microsomes
Isolated Human Liver Microsomes (HLM) were Used to Assess the Metabolic Stability of compounds of general formula I.
The incubations were conducted with 2.4 ml of HLM solution (protein content 0.5 mg/ml), 30 μl of the test compound (final concentration 1 μM) and 0.6 ml of the cofactor mixture (═NADPH-generating system composed of 3 IU glucose-6-phosphate dehydrogenase, 14.6 mg glucose-6-phosphate, 1.2 mg NADP) at 37° C. in 100 mM phosphate buffer at pH 7.4. Samples were taken at 6 time points (2-60 min) and precipitated with an equal volume of methanol, and the recovery of the test substances used in the supernatant was determined by LC-MS/MS analysis. The half-life of substance degradation determined therefrom was used to calculate what is called the intrinsic clearance of the substance in the liver microsome preparation.

solubility [1]	IC50 [2]	IC50 [3]	Predicted clearance Human [4]	Predicted Fmax (maximum oral bioavailability) Human [4]	solubility (in words) ([1]; aqueous medium under physiological conditions)	SMILES
8 µg/mL (≈ 14.8 µM)	0.72 nM	0.76 nM	2.83 mL/min/kg			C[C@]12C[C@H](c3ccc(C#C/C=C\C#N)cc3)C3=C4CCC(=O)C=C4CCC3C1CC[C@@]2(O)C(F)(F)C(F)(F)F (stereo partly drawn) [Example 5, (Z)-5-[4-((8S,11R,13S,14S,17S)-17-hydroxy-13-methyl-3-oxo-17-pentafluoroethyl-2,3,6,7,8,11,12,13,14,15,16,17-dodecahydro-1H-cyclopenta[a]phenanthren-1′-yl)phenyl]pent-2-en-4-ynenitrile]
7 µg/mL (≈ 11 µM)	0.1 nM	0.1 nM	20.2 mL/min/kg	9%		C[C@]12C[C@H](c3ccc(C#CCNC(=O)Nc4ccccc4)cc3)C3=C4CCC(=O)C=C4CC[C@H]3[C@@H]1CC[C@@]2(O)C(F)(F)C(F)(F)F [Example 34, 1-{3-[4-((8S,11R,13S,14S,17S)-17-hydroxy-13-methyl-3-oxo-17-pentafluoroethyl-2,3,6,7,8,11,12,13,14,15,16,17-dodecahydro-1H-cyclopenta[a]phenanthren-11-yl)phenyl]prop-2-ynyl}-3-phenylurea]
4 µg/mL (≈ 6.09 µM)	0.1 nM	0.2 nM	10 mL/min/kg	55%		C[C@]12C[C@H](c3ccc(C#CCNC(=O)Nc4ccc(F)cc4)cc3)C3=C4CCC(=O)C=C4CC[C@H]3[C@@H]1CC[C@@]2(O)C(F)(F)C(F)(F)F [Example 36, 1-{3-[4-((8S,11R,13S,14S,17S)-17-hydroxy-13-methyl-3-oxo-17-pentafluoroethyl-2,3,6,7,8,11,12,13,14,15,16,17-dodecahydro-1H-cyclopenta[a]phenanthren-11-yl)phenyl]prop-2-ynyl}-3-(4-fluorophenyl)urea]
30 µg/mL (≈ 53.1 µM)	0.32 nM	1 nM	8.17 mL/min/kg	63%	improved solubility	C[C@]12C[C@H](c3ccc(C#CCOCCO)cc3)C3=C4CCC(=O)C=C4CC[C@H]3[C@@H]1CC[C@@]2(O)C(F)(F)C(F)(F)F [Example 11, (8S,11R,13S,14S,17S)-17-hydroxy-11-{4-[3-(2-hydroxyethoxy)prop-1-yn-1-yl]-phenyl}-13-methyl-17-pentafluoroethyl-1,2,6,7,8,11,12,13,14,15,16,17-dodecahydrocyclopenta[a]phenanthren-3-one]
5 µg/mL (≈ 8.9 µM)	0.01 nM	0.08 nM	11.7 mL/min/kg	47%		CCO/N=C/C#Cc1ccc([C@H]2C[C@@]3(C)[C@@H](CC[C@@]3(O)C(F)(F)C(F)(F)F)[C@@H]3CCC4=CC(=O)CCC4=C32)cc1 [Example 25A, (E)-[4-((8S,11R,13S,14S,17S)-17-hydroxy-13-methyl-3-oxo-17-pentafluoroethyl-2,3,6,7,8,11,12,13,14,15,16,17-dodecahydro-1H-cyclopenta[a]phenanthren-1′-yl)phenyl]propynal O-ethyl oxime]
	0.09 nM	0.01 nM				CC(C)(C)NC(=O)OCC#Cc1ccc([C@H]2C[C@@]3(C)C(CC[C@@]3(O)C(F)(F)C(F)(F)F)C3CCC4=CC(=O)CCC4=C32)cc1 (stereo partly drawn) [Example 58, tert-butylcarbamic acid 3-[4-((8S,11R,13S,14S,17S)-17-hydroxy-13-methyl-3-oxo-17-pentafluoroethyl-2,3,6,7,8,11,12,13,14,15,16,17-dodecahydro-1H-cyclopenta[a]phenanthren-1′-yl)phenyl]prop-2-ynyl ester]
	0.36 nM	1 nM				CC(C)(O)C#Cc1ccc([C@H]2C[C@@]3(C)[C@@H](CC[C@@]3(O)C(F)(F)C(F)(F)F)[C@@H]3CCC4=CC(=O)CCC4=C32)cc1 [Example 21, (8S,11R,13S,14S,17S)-17-hydroxy-11-[4-(3-hydroxy-3-methylbut-1-ynyl)phenyl]-13-methyl-17-pentafluoroethyl-1,2,6,7,8,11,12,13,14,15,16,17-dodecahydrocyclopenta[a]phenanthren-3-one]
